# pIC50: −log10 of the molar value. “And” between values parts separate entries of the source, which are not always exact repeats. Equal entries are not always repeated. Where two headings read alike, the source gives them in different places.
# Key:
# [1] = tested on: FCR-3 Plasmodium falciparum; parameters: method as in doi:10.1016/S0040-4020(98)00818-7; conditions: chloroquine-resistant FCR-3 strain; cited from earlier work
# P. falciparum W2 = conditions: drug-resistant W2 strain; Figure 1; cited from earlier work
# P. falciparum 3D7 = experiment: SYBR Green based parasite proliferation assay, drug-sensitive 3D7 strain; format: cell-based, Plasmodium falciparum
# P. falciparum Dd2 [2] = experiment: SYBR Green based parasite proliferation assay, chloroquine-resistant Dd2 strain; format: cell-based, Plasmodium falciparum
# P. falciparum HB3 = conditions: Wood group, cited from earlier work
# P. falciparum Dd2 [3] = conditions: Wood group, cited from earlier work
# [4] = Microsomal stability assay, human liver microsomes; format: in vitro ADME; conditions: pH 7.4
# Experimental: Reference compound Ketanserin
# Sample size Duplicates (n=2)
# Bioanalytical method LC-MS/MS
# Microsomal Liver Weight per Hepatic
# Species Protein Kilogram of Body Scaling Factora Blood Flow
# per Gram of Liver Weight (mL/min/kg)
# Test Article Species Percent Remaining (%) T1/2 Clint
# 1. Historic data of ketanserin:
# Detection method UPLC-MS/MS-29(API6500+)
# Internal standard (s) Osalmid, imipramine
# MS conditions Positive ion, ESI
# Mobile phase A: 0.025%FA/1mM NH4OAc/H2O
# 2. Reference compouds(Ketanserin) and test compounds spiking solution: […]
# in vitro = conditions: mouse, microsomes, pH 7.4
# [5] = microsomes; cited from earlier work
# [6] = microsomes; cited from earlier work; remark: listed apart in the source
# [7] = drug-sensitive 3D7 strain, 72 h incubation, n = 3, read-out: IC50
# [8] = drug-resistant Dd2 strain, 72 h incubation, n = 3, read-out: IC50
compound,measurement,setting,value
6-hydroxy-kalihinene [compound 3],pIC50,[1],7.10
"7,20-diisocyanoadociane [compound 4]",pIC50,P. falciparum W2,7.89
10-isocyano-4-cadinene [(±)-15],IC50,P. falciparum 3D7; 3D7 strain,0.1631 mg/L
same,pIC50,P. falciparum 3D7; [7],6.15
same,IC50,P. falciparum Dd2 [2]; Dd2 strain,0.057 mg/L
same,pIC50,P. falciparum Dd2 [2]; [8],6.61
same,pIC50,P. falciparum HB3; HB3 (chloroquine-sensitive),5.66
same,pIC50,P. falciparum Dd2 [3]; Dd2 (chloroquine-resistant),5.66
[C-]#[N+]C1C2C(C(C)C)CCC(C)([N+]#[C-])C2CCC1(C)O (racemic) [(±)-22],pIC50,P. falciparum HB3; HB3,7.10
same,pIC50,P. falciparum Dd2 [3]; Dd2,7.10
CCN(CC)CCCC(C)Nc1ccnc2cc(Cl)ccc12 (stereo not shown) [Chloroquine],IC50,"P. falciparum 3D7; Plasmodium falciparum, 3D7, read-out: Chloroquine IC50 [µM], 3D7 strain, antimalarial standard run alongside each compound",0.0063 µM
same,pIC50,"P. falciparum 3D7; read-out: Chloroquine IC50, 3D7 strain, antimalarial standard run alongside each compound",8.28 and 8.18 and 8.23 and 8.04 and 8.05 and 8.24 and 8.21
same,IC50,"P. falciparum Dd2 [2]; Plasmodium falciparum, DD2, read-out: Chloroquine IC50 [µM], Dd2 strain, antimalarial standard run alongside each compound",0.0275 µM
same,pIC50,"P. falciparum Dd2 [2]; read-out: Chloroquine IC50, Dd2 strain, antimalarial standard run alongside each compound",7.49 and 7.47 and 7.30 and 7.28
O=C(c1ccc(F)cc1)C1CCN(CCn2c(=O)[nH]c3ccccc3c2=O)CC1 [ketanserin],CLint scaled at 1 µM,"[4]; human, microsomes",2.4 L/h/kg
same,"remaining at 5 min, 1 µM","[4]; human, microsomes",88.4%
same,"remaining at 0.25 h, 1 µM","[4]; human, microsomes",77%
same,"remaining at 0.5 h, 1 µM","[4]; human, microsomes",62.5%
same,"remaining at 0.75 h, 1 µM","[4]; human, microsomes",47.3%
same,half-life at 1 µM,"[4]; human liver microsomes 0.5 mg/mL, 1 µM, 37°C",43.4 min
same,CLint scaled at 1 µM,in vitro,16 L/h/kg
same,half-life at 1 µM,in vitro,20.4 min
same,"remaining at 0 h, 1 µM",in vitro,100%
same,"remaining at 5 min, 1 µM",in vitro,79.9%
same,"remaining at 0.25 h, 1 µM",in vitro,55.5%
same,"remaining at 0.5 h, 1 µM",in vitro,32.9%
same,"remaining at 0.75 h, 1 µM",in vitro,21.7%
same,"T1/2 (Human), historic data",[5],39.69 ± 6.36 min
same,"T1/2 (Mouse), historic data",[6],18.27 ± 3.89 min
kalihinol A [compound 1],pIC50,[1],8.92
kalihinol B [compound 2],IC50,P. falciparum 3D7; 3D7 strain,0.0033 mg/L
same,pIC50,P. falciparum 3D7; [7],8.08
same,IC50,P. falciparum Dd2 [2]; Dd2 strain,0.0018 mg/L
same,pIC50,P. falciparum Dd2 [2]; [8],8.34
